Values after ≈ are worked out from the molar mass of the structure shown.

System in one data set: not given
Experiment: not given
Conditions: not given
The compound `O=C(Nc1ccc(Br)cc1-c1noc(=O)[nH]1)c1cccc(Oc2ccccc2)c1` [Example 16, N-[4-Bromo-2-(5-oxo-4,5-dihydro-1,2,4-oxadiazol-3-yl)phenyl]-3-phenoxybenzamide] yielded a melting point of 185 to 187 °C. `O=C(Nc1ccc(Br)cc1-c1nnn[nH]1)c1cccc(S(=O)(=O)N2CCOCC2)c1` [Example 17, N-[4-bromo-2-(1H-tetraazol-5-yl)phenyl]-3-(morpholin-4-ylsulfonyl)benzamide] displayed a melting point of 228 to 230 °C.

In a further data set the test system is SAUR 9218. Put plainly: MIC by standard agar dilution method. Type of data set: cell-based. Particulars: Mueller Hinton agar, incubated overnight at 35° C., lowest concentration that inhibits visible growth. As for the experimental part: MIC Test Method The in vitro MICs of test compounds were determined by a standard agar dilution method. A stock drug solution of each analog was prepared in the preferred solvent, usually DMSO:H2O (1:3). Serial 2-fold dilutions of each sample are made using 1.0 ml aliquots of sterile distilled water. To each 1.0 ml aliquot of drug was added 9 ml of molten Mueller Hinton agar medium. The drug-supplemented agar was mixed, poured into 15×100 mm petri dishes, and allowed to solidify and dry prior to inoculation. Vials of each of the test organisms are maintained frozen in the vapor phase of a liquid nitrogen freezer. Test cultures are grown overnight at 35° C. on the medium appropriate for the organism. Colonies are harvested with a sterile swab, and cell suspensions are prepared in Trypticase Soy broth (TSB) to equal the turbidity of a 0.5 McFarland standard. A 1:20 dilution of each suspension was made in TSB. The plates containing the drug supplemented agar are inoculated with a 0.001 ml drop of the cell suspension using a Steers replicator, yielding approximately 10^4 to 10^5 cells per spot. The plates are incubated overnight at 35° C. Following incubation the Minimum Inhibitory Concentration (MIC μg/ml), the lowest concentration of drug that inhibits visible growth of the organism, was read and recorded.
In the case of `CN(c1ccc(Cl)cc1)S(=O)(=O)c1ccc(C(=O)Nc2ccc(Br)cc2NS(=O)(=O)C(F)(F)F)cc1`, the minimal inhibitory concentration (MIC) was 32 µg/mL (≈ 51 µM). In the case of `O=C(Nc1ccc(Br)cc1-c1noc(=O)[nH]1)c1cccc(S(=O)(=O)N2CCc3cc(Cl)ccc32)c1` [Example 1, N-[4-Bromo-2-(5-oxo-4,5-dihydro-1,2,4-oxadiazol-3-yl)phenyl]-3-[(5-chloro-2,3-dihydro-1H-indol-1-yl)sulfonyl]benzamide], the minimal inhibitory concentration (MIC) was found to be 4 µg/mL (≈ 6.95 µM). For the compound `O=C(Nc1ccc(Br)cc1-c1noc(=O)[nH]1)c1cccc(SCc2ccccc2)c1` [Example 2, 3-(Benzylthio)-N-[4-bromo-2-(5-oxo-4,5-dihydro-1,2,4-oxadiazol-3-yl)phenyl]benzamide], the minimal inhibitory concentration (MIC) is 8 µg/mL (≈ 16.6 µM). On to `CN(c1ccc(Cl)cc1)S(=O)(=O)c1cccc(C(=O)Nc2ccc(Br)cc2C(=O)NS(C)(=O)=O)c1` [Example 3, N-(4-Bromo-2-{[(methylsulfonyl)amino]carbonyl}phenyl)-3-{[(4-chlorophenyl)(methyl)amino]sulfonyl}benzamide], for which the lowest concentration to inhibit growth (MIC) was 2 µg/mL (≈ 3.33 µM). This MIC lies about 4-fold lower than the previous one. In the case of `Cc1ccc(S(=O)(=O)NC(=O)c2cc(Br)ccc2NC(=O)c2cccc(S(=O)(=O)N(C)c3ccc(Cl)cc3)c2)cc1` [Example 4, N-[4-Bromo-2-({[(4-methylphenyl)sulfonyl]amino}carbonyl)phenyl]-3-{[(4-chlorophenyl)(methyl)amino]sulfonyl}benzamide], 8 µg/mL (≈ 11.8 µM) was the least that counted as inhibitory (MIC). The same measure, in the same setting: the value for `CN(c1ccc(Cl)cc1)S(=O)(=O)c1ccc(C(=O)Nc2ccc(Br)cc2-c2nnn[nH]2)cc1` [Example 5, N-[4-Bromo-2-(1H-tetraazol-5-yl)phenyl]-4-{[(4-chlorophenyl)(methyl)amino]sulfonyl}benzamide] was 16 µg/mL (≈ 29.2 µM). For the compound `CN(c1ccc(Cl)cc1)S(=O)(=O)c1ccc(C(=O)Nc2ccc(Br)cc2-c2noc(=O)[nH]2)cc1` [Example 6, N-[4-Bromo-2-(5-oxo-4,5-dihydro-1,2,4-oxadiazol-3-yl)phenyl]-4-{[(4-chlorophenyl)(methyl)amino]sulfonyl}benzamide], the minimum inhibitory concentration (MIC) came out at 16 µg/mL (≈ 28.4 µM). On the same count and under the same terms, the value for `O=C(Nc1ccc(Br)cc1-c1noc(=O)[nH]1)c1ccc(S(=O)(=O)N2CCc3ccccc32)cc1` [Example 7, N-[4-Bromo-2-(5-oxo-4,5-dihydro-1,2,4-oxadiazol-3-yl)phenyl]-4-(2,3-dihydro-1H-indol-1-ylsulfonyl)benzamide] was 16 µg/mL (≈ 29.6 µM). On the same count and under the same terms, the value for `CN(c1ccc(Cl)cc1)S(=O)(=O)c1ccc(C(=O)Nc2ccc(Br)cc2-c2n[nH]c(=S)o2)cc1` [Example 8, N-[4-Bromo-2-(5-thioxo-4,5-dihydro-1,3,4-oxadiazol-2-yl)phenyl]-4-{[(4-chlorophenyl)(methyl)amino]sulfonyl}benzamide] was 4 µg/mL (≈ 6.9 µM). In turn, `CN(c1ccc(Cl)cc1)S(=O)(=O)c1cccc(C(=O)Nc2ccc(Br)cc2-c2noc(=O)[nH]2)c1` [Example 9, N-[4-Bromo-2-(5-oxo-4,5-dihydro-1,2,4-oxadiazol-3-yl)phenyl]-3-{[(4-chlorophenyl)(methyl)amino]sulfonyl}benzamide] returned an MIC of 16 µg/mL (≈ 28.4 µM). Compound `O=C(Nc1ccc(Br)cc1-c1noc(=O)[nH]1)c1cccc(OCc2ccccc2)c1` [Example 10, 3-(Benzyloxy)-N-[4-bromo-2-(5-oxo-4,5-dihydro-1,2,4-oxadiazol-3-yl)phenyl]benzamide] showed a minimum inhibitory concentration (MIC) of 8 µg/mL (≈ 17.2 µM). Against the preceding compound, the MIC is about 2-fold lower. `O=C(Nc1ccc(Br)cc1C1=Nc2ccccc2S(=O)(=O)N1)c1cccc(S(=O)(=O)N2CCOCC2)c1` [Example 11, N-[4-Bromo-2-(1,1-dioxido-2H-1,2,4-benzothiadiazin-3-yl)phenyl]-3-(morpholin-4-ylsulfonyl)benzamide] displayed a minimum inhibitory concentration (MIC) of 16 µg/mL (≈ 26.4 µM). Take `O=C(Nc1ccc(Br)cc1-c1nc2ccccc2c(=O)[nH]1)c1cccc(S(=O)(=O)N2CCc3cc(Cl)ccc32)c1` [Example 12, N-[4-Bromo-2-(4-oxo-3,4-dihydroquinazolin-2-yl)phenyl]-3-[(5-chloro-2,3-dihydro-1H-indol-1-yl)sulfonyl]benzamide]: 4 µg/mL (≈ 6.29 µM) was the least that counted as inhibitory (MIC). Compared with the last compound, the MIC is about 4-fold lower. For the compound `O=C(Nc1ccc(Br)cc1-c1nc2ccccc2c(=O)[nH]1)c1cccc(S(=O)(=O)N2CCOCC2)c1` [Example 13, N-[4-Bromo-2-(4-oxo-3,4-dihydroquinazolin-2-yl)phenyl]-3-(morpholin-4-ylsulfonyl)benzamide], the MIC was 4 µg/mL (≈ 7.02 µM).

Compound `O=C(Nc1ccc(Br)cc1C1=Nc2ccccc2S(=O)(=O)N1)c1cccc(S(=O)(=O)N2CCc3cc(Cl)ccc32)c1` [Example 14, N-[4-Bromo-2-(1,1-dioxido-2H-1,2,4-benzothiadiazin-3-yl)phenyl]-3-[(5-chloro-2,3-dihydro-1H-indol-1-yl)sulfonyl]benzamide] came in with an MIC of 64 µg/mL (≈ 95.2 µM). `CC(C)Oc1cccc(C(=O)Nc2ccc(Br)cc2-c2noc(=O)[nH]2)c1` [Example 15, N-[4-Bromo-2-(5-oxo-4,5-dihydro-1,2,4-oxadiazol-3-yl)phenyl]-3-isopropoxybenzamide]: the MIC was 32 µg/mL (≈ 76.5 µM). This MIC lies about 2-fold lower than the previous one. With `O=C(Nc1ccc(Br)cc1-c1noc(=O)[nH]1)c1cccc(Oc2ccccc2)c1` [Example 16, N-[4-Bromo-2-(5-oxo-4,5-dihydro-1,2,4-oxadiazol-3-yl)phenyl]-3-phenoxybenzamide], 16 µg/mL (≈ 35.4 µM) was the least that counted as inhibitory (MIC).

In turn, `O=C(Nc1ccc(Br)cc1-c1nnn[nH]1)c1cccc(S(=O)(=O)N2CCOCC2)c1` [Example 17, N-[4-bromo-2-(1H-tetraazol-5-yl)phenyl]-3-(morpholin-4-ylsulfonyl)benzamide] registered a minimum inhibitory concentration (MIC) of 64 µg/mL (≈ 130 µM). In turn, `O=C(Nc1ccc(I)cc1-c1nnn[nH]1)c1cc2cccc(S(=O)(=O)c3ccccc3)c2[nH]1` [Example 24, N-[4-iodo-2-(1H-tetraazol-5-yl)phenyl]-7-(phenylsulfonyl)-1H-indole-2-carboxamide] showed a minimum inhibitory concentration (MIC) of 0.5 µg/mL (≈ 0.877 µM). `N#Cc1ccc(NC(=O)c2cccc(S(=O)(=O)N3CCc4cc(Cl)ccc43)c2)c(C(=O)Nc2nccs2)c1` [Example 26, 2-({3-[(5-Chloro-2,3-dihydro-1H-indol-1-yl)sulfonyl]benzoyl}amino)-5-cyano-N-(1,3-thiazol-2-yl)benzamide]: the MIC was 8 µg/mL (≈ 14.2 µM). The compound `CN(c1ccc(Cl)cc1)S(=O)(=O)c1coc(C(=O)Nc2ccc(Br)cc2-c2nnn[nH]2)c1` [Example 27] showed an MIC of 16 µg/mL (≈ 29.8 µM). Still for that read-out and setting: the figure for `CN(c1ccc(Cl)cc1)S(=O)(=O)c1csc(C(=O)Nc2ccc(Br)cc2-c2nnn[nH]2)c1` [Example 28, N-[4-Bromo-2-(1H-tetraazol-5-yl)phenyl]-4-{[(4-chlorophenyl)(methyl)amino]sulfonyl}thiophene-2-carboxamide] is 16 µg/mL (≈ 28.9 µM); for `CN(c1ccc(Cl)cc1)S(=O)(=O)c1ccc(C(=O)Nc2ccc(Br)cc2-c2nnn[nH]2)s1` [Example 29, N-[4-Bromo-2-(1H-tetraazol-5-yl)phenyl]-5-{[(4-chlorophenyl)(methyl)amino]sulfonyl}thiophene-2-carboxamide] it is 8 µg/mL (≈ 14.4 µM); for `CC(C)Sc1ccc(C(=O)Nc2ccc(Br)cc2-c2noc(=O)[nH]2)cn1` [Example 31, N-[4-bromo-2-(5-oxo-4,5-dihydro-1,2,4-oxadiazol-3-yl)phenyl]-6-(isopropylthio)nicotinamide] it is 8 µg/mL (≈ 18.4 µM). Still for that read-out and setting: the figure for `O=C(Nc1ccc(Br)cc1-c1nnn[nH]1)c1ccc(S(=O)(=O)N2CCc3ccccc32)cc1` [N-[4-bromo-2-(1H-1,2,3,4-tetraazol-5-yl)phenyl]-4-(2,3-dihydro-1H-indol-1-ylsulfonyl)benzamide] is 2 µg/mL (≈ 3.81 µM); for `O=C(Nc1ccc(Br)cc1-c1nnn[nH]1)c1ccc(S(=O)(=O)N2CCc3cc(Cl)ccc32)cc1` [N-[4-bromo-2-(1H-1,2,3,4-tetraazol-5-yl)phenyl]-4-[(5-chloro-2,3-dihydro-1H-indol-1-yl)sulfonyl]benzamide] it is 4 µg/mL (≈ 7.14 µM). Regarding `COc1cccc(C(=O)Nc2ccc(Br)cc2-c2nnn[nH]2)c1` [N-[4-bromo-2-(1H-tetraazol-5-yl)phenyl]-3-methoxybenzamide], the MIC was found to be 64 µg/mL (≈ 171 µM). For `O=C(Nc1ccc(Br)cc1-c1noc(=O)[nH]1)c1ccc(S(=O)(=O)N2CCc3cc(Cl)ccc32)cc1` [N-[4-bromo-2-(5-oxo-4,5-dihydro-1,2,4-oxadiazol-3-yl)phenyl]-4-[(5-chloro-2,3-dihydro-1H-indol-1-yl)sulfonyl]benzamide], the MIC is 8 µg/mL (≈ 13.9 µM). For the compound `O=C(Nc1ccc(Br)cc1-c1n[nH]c(=O)o1)c1ccc(S(=O)(=O)N2CCc3cc(Cl)ccc32)cc1` [N-[4-bromo-2-(5-oxo-4,5-dihydro-1,3,4-oxadiazol-2-yl)phenyl]-4-[(5-chloro-2,3-dihydro-1H-indol-1-yl)sulfonyl]benzamide], the MIC was > 128 µg/mL.

The compound `CN(c1ccc(Cl)cc1)S(=O)(=O)c1ccc(C(=O)Nc2ccc(Br)cc2-c2n[nH]c(=O)o2)cc1` [N-[4-bromo-2-(5-oxo-4,5-dihydro-1,3,4-oxadiazol-2-yl)phenyl]-4-{[4-chloro(methyl)anilino]sulfonyl}benzamide] yielded a minimum inhibitory concentration (MIC) of 2 µg/mL (≈ 3.55 µM). In the case of `CN(c1ccc(Cl)cc1)S(=O)(=O)c1ccc(C(=O)Nc2ccc(Br)cc2-c2noc(=S)[nH]2)cc1` [N-[4-bromo-2-(5-thioxo-4,5-dihydro-1,2,4-oxadiazol-3-yl)phenyl]-4-{[4-chloro(methyl)anilino]sulfonyl}benzamide], the minimum inhibitory concentration (MIC) worked out at 16 µg/mL (≈ 27.6 µM).

The values above are taken from US20040142981A1, “Antibacterial benzoic acid derivatives” (priority 2002, published 2004).
